How the values were obtained:
Cavia porcellus [1] = experiment: Antitussive activity in ip dosed Dunkin-Hartley guinea pig assessed as inhibition of citric acid-induced cough administered 30 mins before citric acid challenge; assay type: functional
Cavia porcellus [2] = experiment: Antitussive activity in Dunkin-Hartley guinea pig assessed as inhibition of citric acid-induced cough at 100 mg/kg, ip administered 30 mins before citric acid challenge; assay type: functional; conditions: route intraperitoneal

Compound	ED50 (Cavia porcellus [1]) [µmol/kg]	inhibition in vivo at 100 mg/kg (Cavia porcellus [2]) [%]	Activity (Cavia porcellus [1])
CC[C@@H]1[C@H]2CCCCN3[C@H]2[C@@H](C[C@H]3[C@@H]2C[C@H](C)C(=O)O2)[C@H]2[C@@H]1OC(=O)[C@H]2C [NEOTUBEROSTEMONINE]	66	–	–
CC[C@H]1[C@@H]2c3ccc([C@@H]4C[C@H](C)C(=O)O4)n3CCC[C@H]2O[C@]12C=C(C)C(=O)O2 [BISDEHYDROSTEMONININE]	188	90	Dose-dependent effect
